According to PubChem BioAssay AID1963963 (Molecular Pharmacology Branch, DTP, NCI, 2024):
Blank lines part the entries; values can stand above or below the compound they belong to.

Test system: 958667-338-R-J2-PDC tumor spheroids viability
Assay: Anticancer human tumor 958667-338-R-J2-PDC patient-derived colon adenocarcinoma cell line growth inhibition [PI3K]
Conditions: spheroids with HUVEC and MSC; for viability, T/C: stronger effect = lower value
Method in brief: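 Multi-cell spheroids combine tumor cells with HUVEC and human MSCs, treated with targeted agents alone or with inavolisib, alpelisib, duvelisib or copanlisib. Concentrations fall in half-log steps from at or near clinical Cmax, or from 10 microM where Cmax is unknown; viability read-out.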
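Further: spheroids exposed to compounds for seven days before readout.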

IC50 (curve of first compound, second compound 0.0316 µM): > 10 µM | IC50 (curve of first compound, second compound 0.1 µM): > 10 µM | IC50 (curve of first compound, second compound 0.316 µM): > 10 µM | IC50 (curve of first compound, second compound 1 µM): > 10 µM | IC50 (curve of first compound, second compound 3.16 µM): > 10 µM | IC50 (curve of first compound, second compound 10 µM): 8.08 µM
SMILES: Cn1nccc1Nc1nccc(-c2ccn(C(CO)c3ccc(Cl)c(F)c3)c(=O)c2)n1 (stereo not drawn) + CC(Nc1ncnc2nc[nH]c12)c1cc2cccc(Cl)c2c(=O)n1-c1ccccc1
viability, T/C (second compound 0.0316 µM, first compound 0.0316 µM): 93.3% | viability, T/C (second compound 0.0316 µM, first compound 0.1 µM): 93.3% | viability, T/C (second compound 0.0316 µM, first compound 0.316 µM): 92.1% | viability, T/C (second compound 0.0316 µM, first compound 1 µM): 97.6% | viability, T/C (second compound 0.0316 µM, first compound 3.16 µM): 72.2% | viability, T/C (second compound 0.0316 µM, first compound 10 µM): 77.8% | viability, T/C (second compound 0.1 µM, first compound 0.0316 µM): 88% | viability, T/C (second compound 0.1 µM, first compound 0.1 µM): 106% | viability, T/C (second compound 0.1 µM, first compound 0.316 µM): 109% | viability, T/C (second compound 0.1 µM, first compound 1 µM): 69.4% | viability, T/C (second compound 0.1 µM, first compound 3.16 µM): 73.6% | viability, T/C (second compound 0.1 µM, first compound 10 µM): 63.3% | viability, T/C (second compound 0.316 µM, first compound 0.0316 µM): 91.1% | viability, T/C (second compound 0.316 µM, first compound 0.1 µM): 105% | viability, T/C (second compound 0.316 µM, first compound 0.316 µM): 80.6% | viability, T/C (second compound 0.316 µM, first compound 1 µM): 106% | viability, T/C (second compound 0.316 µM, first compound 3.16 µM): 76.3% | viability, T/C (second compound 0.316 µM, first compound 10 µM): 60.1% | viability, T/C (second compound 1 µM, first compound 0.0316 µM): 93.9% | viability, T/C (second compound 1 µM, first compound 0.1 µM): 87% | viability, T/C (second compound 1 µM, first compound 0.316 µM): 82.7% | viability, T/C (second compound 1 µM, first compound 1 µM): 89.6% | viability, T/C (second compound 1 µM, first compound 3.16 µM): 83.5% | viability, T/C (second compound 1 µM, first compound 10 µM): 50.7% | viability, T/C (second compound 3.16 µM, first compound 0.0316 µM): 82.9% | viability, T/C (second compound 3.16 µM, first compound 0.1 µM): 79.9% | viability, T/C (second compound 3.16 µM, first compound 0.316 µM): 68.3% | viability, T/C (second compound 3.16 µM, first compound 1 µM): 75.4% | viability, T/C (second compound 3.16 µM, first compound 3.16 µM): 66.8% | viability, T/C (second compound 3.16 µM, first compound 10 µM): 51.4% | viability, T/C (second compound 10 µM, first compound 0.0316 µM): 94% | viability, T/C (second compound 10 µM, first compound 0.1 µM): 94.2% | viability, T/C (second compound 10 µM, first compound 0.316 µM): 67.3% | viability, T/C (second compound 10 µM, first compound 1 µM): 87.6% | viability, T/C (second compound 10 µM, first compound 3.16 µM): 66.3% | viability, T/C (second compound 10 µM, first compound 10 µM): 44.9%

IC50 (curve of compound): 377 nM [middle of 4 runs]
SMILES: Cn1cnc2c(F)c(Nc3ccc(Br)cc3Cl)c(C(=O)NOCCO)cc21
viability, T/C (compound 0.00949 µM): 96.5% [middle of 4 runs] | viability, T/C (compound 0.0949 µM): 85.5% [middle of 4 runs] | viability, T/C (compound 0.3 µM): 54.2% [middle of 4 runs] | viability, T/C (compound 0.949 µM): 35.9% [middle of 4 runs] | viability, T/C (compound 3 µM): 20.5% [middle of 4 runs]
